Assay results as given in ChEMBL document CHEMBL1150799, “Vancomycin in vitro bactericidal activity and its relationship to efficacy in clearance of methicillin-resistant Staphylococcus aureus bacteremia” (2007).

Tested on: Staphylococcus aureus
Test: Antibacterial activity against methicillin-resistant Staphylococcus aureus assessed as bacterial killing at 16 ug/ml by serial dilution method after 24 hrs
Type: functional

Question: `CN[C@H](CC(C)C)C(=O)N[C@H]1C(=O)N[C@@H](CC(N)=O)C(=O)N[C@H]2C(=O)N[C@H]3C(=O)N[C@H](C(=O)N[C@H](C(=O)O)c4cc(O)cc(O)c4-c4cc3ccc4O)[C@H](O)c3ccc(c(Cl)c3)Oc3cc2cc(c3O[C@@H]2O[C@H](CO)[C@@H](O)[C@H](O)[C@H]2O[C@H]2C[C@](C)(N)[C@H](O)[C@H](C)O2)Oc2ccc(cc2Cl)[C@H]1O` [VANCOMYCIN] was tested. Which log10CFU/ml did it give?
Answer: The log10CFU/ml was 0.82.
